From patent US8916593B2, “Alkoxy-substituted 2-aminopyridines as ALK inhibitors” (Pfizer Inc., priority 2010, dated 2014)
pIC50, pKi: −log10 of the molar value.

How the values were obtained:
[1] = target: T1, human recombinant wild-type ALK kinase domain (amino acids 1093-1411) (Homo sapiens, UniProt Q9UM73); test: ALK enzyme assay 2 (microfluidic mobility shift assay); assay type: biochemical;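 further: kinase reaction run 1 h at room temperature, conversion quantified by electrophoretic separation of fluorescent peptide substrate from phosphorylated product, about 15-20% turnover without inhibitor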
T1 construct: ALK kinase domain (amino acids 1093-1411); made in house
Description: The reactions were incubated for 1 h at room temperature, stopped by the addition of 0.1 M EDTA, pH 8, and the extent of reactions (˜15-20% conversion with no inhibitor) was determined after electrophoretic separation of the fluorescently labeled peptide substrate and phosphorylated product on an LabChip EZ Reader II (Caliper Life Sciences, Hopkinton, Mass.).

[2] = target: EML4-ALK wt v1 in NIH-3T3 cells (Homo sapiens, UniProt Q9UM73)
EML4-ALK wt v1 in NIH-3T3 cells, sequence (Q9UM73 with tags, fused parts or gaps): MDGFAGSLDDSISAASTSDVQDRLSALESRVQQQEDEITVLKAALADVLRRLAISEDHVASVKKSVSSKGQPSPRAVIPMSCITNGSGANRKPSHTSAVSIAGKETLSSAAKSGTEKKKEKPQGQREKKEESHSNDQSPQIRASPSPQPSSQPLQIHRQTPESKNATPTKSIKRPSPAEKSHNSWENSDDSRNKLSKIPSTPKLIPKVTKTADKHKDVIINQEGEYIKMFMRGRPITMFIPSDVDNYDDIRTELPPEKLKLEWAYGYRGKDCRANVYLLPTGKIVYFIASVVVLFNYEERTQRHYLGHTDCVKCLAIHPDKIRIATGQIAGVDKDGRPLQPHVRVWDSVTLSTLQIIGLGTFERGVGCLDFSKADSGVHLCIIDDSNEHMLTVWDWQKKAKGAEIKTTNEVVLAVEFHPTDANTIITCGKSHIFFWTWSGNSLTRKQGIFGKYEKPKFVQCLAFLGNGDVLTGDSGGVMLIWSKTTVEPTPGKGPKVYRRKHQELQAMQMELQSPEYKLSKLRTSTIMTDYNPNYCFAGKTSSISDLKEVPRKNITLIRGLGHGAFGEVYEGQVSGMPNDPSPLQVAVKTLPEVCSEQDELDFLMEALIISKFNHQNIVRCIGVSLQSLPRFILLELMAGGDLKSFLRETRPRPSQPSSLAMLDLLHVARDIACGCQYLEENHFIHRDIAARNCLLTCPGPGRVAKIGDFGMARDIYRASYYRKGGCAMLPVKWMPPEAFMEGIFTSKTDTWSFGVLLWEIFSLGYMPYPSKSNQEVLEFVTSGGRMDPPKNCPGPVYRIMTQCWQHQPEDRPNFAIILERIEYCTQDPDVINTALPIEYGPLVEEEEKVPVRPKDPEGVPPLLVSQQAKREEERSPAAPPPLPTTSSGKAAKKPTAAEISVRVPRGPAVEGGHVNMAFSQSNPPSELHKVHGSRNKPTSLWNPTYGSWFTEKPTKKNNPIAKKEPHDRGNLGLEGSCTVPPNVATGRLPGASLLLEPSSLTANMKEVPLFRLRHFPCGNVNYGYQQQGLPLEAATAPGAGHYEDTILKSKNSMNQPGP

T1 sequence (Q9UM73 1093-1411): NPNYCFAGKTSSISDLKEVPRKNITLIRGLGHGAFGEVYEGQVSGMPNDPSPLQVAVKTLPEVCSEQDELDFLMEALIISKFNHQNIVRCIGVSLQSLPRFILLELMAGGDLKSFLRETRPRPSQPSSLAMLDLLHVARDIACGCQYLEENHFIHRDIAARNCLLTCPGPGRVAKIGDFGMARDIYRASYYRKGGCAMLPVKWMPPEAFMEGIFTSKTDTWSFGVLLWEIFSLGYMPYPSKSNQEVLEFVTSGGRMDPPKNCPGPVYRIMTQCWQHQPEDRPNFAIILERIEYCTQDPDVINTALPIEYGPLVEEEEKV

pKi [1] | pIC50 [2] | Structure (SMILES)
> 9.70 | 8.55 | Cc1nn(C2CCNC2=O)cc1-c1cnc(N)c(O[C@H](C)c2cc(F)ccc2-n2nccn2)c1 (stereo partly drawn) [Example 139, 3-[4-(6-amino-5-{(1R)-1-[5-fluoro-2-(2H-1,2,3-triazol-2-yl)phenyl]ethoxy}pyridin-3-yl)-3-methyl-1H-pyrazol-1-yl]pyrrolidin-2-one]
> 9.70 | 9.21 | C[C@@H](Oc1cc(-c2ccc(C(C)(C)O)c(S(C)(=O)=O)c2)cnc1N)c1cc(F)ccc1-n1nccn1 [Example 111, 2-[4-(6-amino-5-{(1R)-1-[5-fluoro-2-(2H-1,2,3-triazol-2-yl)phenyl]ethoxy}pyridin-3-yl)-2-(methylsulfonyl)phenyl]propan-2-ol]
> 9.70 | 8.00 | C[C@@H](Oc1cc(-c2cnn(C3CCNC3)c2)cnc1N)c1cc(F)ccc1-n1nccn1 (stereo partly drawn) [Example 81, 3-{(1R)-1-[5-fluoro-2-(2H-1,2,3-triazol-2-yl)phenyl]ethoxy}-5-[1-(pyrrolidin-3-yl)-1H-pyrazol-4-yl]pyridin-2-amine]
> 9.70 | 7.98 | CCc1nc(CS(C)(=O)=O)sc1-c1cnc(N)c(O[C@H](C)c2cc(F)ccc2-n2nccn2)c1 [Example 145, (R)-5-(4-ethyl-2-((methylsulfonyl)methyl)thiazol-5-yl)-3-(1-(5-fluoro-2-(2H-1,2,3-triazol-2-yl)phenyl)ethoxy)pyridin-2-amine]
9.40 | 8.59 | COc1ccc(F)cc1C(C)Oc1cc(-c2sc(CO)nc2C)cnc1N (stereo not shown) [Example 137, (5-{6-amino-5-[1-(5-fluoro-2-methoxyphenyl)ethoxy]pyridin-3-yl}-4-methyl-1,3-thiazol-2-yl)methanol]
9.17 | 7.67 | C[C@@H](Oc1cc(-c2cnc(CO)s2)cnc1N)c1cc(F)ccc1-n1nccn1 [Example 106, [5-(6-amino-5-{(1R)-1-[5-fluoro-2-(2H-1,2,3-triazol-2-yl)phenyl]ethoxy}pyridin-3-yl)-1,3-thiazol-2-yl]methanol]
> 9.70 | 7.82 | Cc1nc(C(C)(C)O)sc1-c1cnc(N)c(O[C@H](C)c2cc(F)ccc2-n2nccn2)n1 [Example 103, 2-[5-(5-amino-6-{(1R)-1-[5-fluoro-2-(2H-1,2,3-triazol-2-yl)phenyl]ethoxy}pyrazin-2-yl)-4-methyl-1,3-thiazol-2-yl]propan-2-ol]
9.33 | 7.46 | C[C@@H](Oc1cc(-c2ccc3c(c2)S(=O)(=O)CC3O)cnc1N)c1cc(F)ccc1-n1nccn1 (stereo partly drawn) [Example 110, 6-(6-amino-5-{(1R)-1-[5-fluoro-2-(2H-1,2,3-triazol-2-yl)pheny]ethoxy}pyridin-3-yl)-2,3-dihydro-1-benzothiophene-3-ol 1,1-dioxide]
> 9.70 | 7.97 | C[C@@H](Oc1cc(-c2cnn([C@H]3CCCNC3)c2)cnc1N)c1cc(F)ccc1-n1nccn1 [Example 98, 3-{(1R)-1-[5-fluoro-2-(2H-1,2,3-triazol-2-yl)phenyl]ethoxy}-5-[1-(piperidin-3-yl)-1H-pyrazol-4-yl]pyridin-2-amine]
> 9.31 | 7.66 | CC(O)c1ncc(-c2cnc(N)c(O[C@H](C)c3cc(F)ccc3-n3nccn3)c2)s1 (stereo partly drawn) [Example 94, 1-[5-(6-amino-5-{(1R)-1-[5-fluoro-2-(2H-1,2,3-triazol-2-yl)phenyl]ethoxy}pyridin-3-yl)-1,3-thiazol-2-yl]ethanol]
9.92 | 8.04 | CNCc1ccc(-c2cnc(N)c(OC(C)c3cc(F)ccc3OC)c2)cc1S(C)(=O)=O (stereo not shown) [Example 134, 3-[1-(5-fluoro-2-methoxyphenyl)ethoxy]-5-{4-[(methylamino)methyl]-3-(methylsulfonyl)phenyl}pyridin-2-amine]
8.92 | 7.23 | CNC(=O)c1nc(C)c(-c2cnc(N)c(O[C@H](C)c3cc(F)ccc3-n3nccn3)c2)s1 [Example 90, 5-(6-amino-5-{(1R)-1-[5-fluoro-2-(2H-1,2,3-triazol-2-yl)phenyl]ethoxy}pyridin-3-yl)-N,4-dimethyl-1,3-thiazole-2-carboxamide]
9.66 | 7.36 | C[C@@H](Oc1cc(-c2ccc3c(c2)CNC3=O)cnc1N)c1cc(F)ccc1-n1nccn1 [Example 89, 5-(6-amino-5-{(1R)-1-[5-fluoro-2-(2H-1,2,3-triazol-2-yl)phenyl]ethoxy}pyridin-3-yl)-2,3-dihydro-1H-isoindol-1-one]
– | 8.38 | COCc1ccc(-c2cnc(N)c(OC(C)c3cc(F)ccc3OC)c2)cc1S(C)(=O)=O (stereo not shown) [Example 135, 3-[1-(5-fluoro-2-methoxyphenyl)ethoxy]-5-[4-(methoxymethyl)-3-(methylsulfonyl)phenyl]pyridin-2-amine]
9.62 | 7.98 | C[C@@H](Oc1nc(-c2cccc(S(C)(=O)=O)c2)cnc1N)c1cc(F)ccc1-n1nccn1 [Example 72, 3-{(1R)-1-[5-fluoro-2-(2H-1,2,3-triazol-2-yl)phenyl]ethoxy}-5-[3-(methylsulfonyl)phen-yl]pyrazin-2-amine]
> 9.70 | 8.36 | C[C@@H](Oc1cc(-c2ccc(CO)c(S(C)(=O)=O)c2)cnc1N)c1cc(F)ccc1-n1nccn1 [Example 119, [4-(6-amino-5-{(1R)-1-[5-fluoro-2-(2H-1,2,3-triazol-2-yl)phenyl]ethoxy}pyridin-3-yl)-2-(methylsulfonyl)phenyl]methanol]
> 9.70 | 8.17 | C[C@@H](Oc1cc(-c2cnn(C3CCNCC3F)c2)cnc1N)c1cc(F)ccc1-n1nccn1 (stereo partly drawn) [Example 74, 5-[1-(3-fluoropiperidin-4-yl)-1H-pyrazol-4-yl]-3-{(1R)-1-[5-fluoro-2-(2H-1,2,3-triazol-2-yl)phenyl]ethoxy} pyridin-2-amine]
8.89 | 6.16 | COc1ccc(F)cc1C(C)Oc1cc(-c2nsc(S(C)(=O)=O)n2)cnc1N (stereo not shown) [Example 133, 3-[1-(5-fluoro-2-methoxyphenyl)ethoxy]-5-[5-(methylsulfonyl)-1,2,4-thiadiazol-3-yl]pyridin-2-amine]
9.47 | 7.61 | C[C@@H](Oc1cc(-c2cnc3c(c2)C(C)(C)C(=O)N3)cnc1N)c1cc(F)ccc1-n1nccn1 [Example 75, 5-(6-amino-5-{(1R)-1-[5-fluoro-2-(2H-1,2,3-triazol-2-yl)phenyl]ethoxy}pyridin-3-yl)-3,3-dimethyl-1,3-dihydro-2H-pyrrolo[2,3-b]pyridin-2-one]
> 9.70 | 8.05 | CNS(=O)(=O)c1ccc(OC)c(-c2cnc(N)c(O[C@H](C)c3cc(F)ccc3-n3nccn3)c2)c1 [Example 143, 3-(6-amino-5-{(1R)-1-[5-fluoro-2-(2H-1,2,3-triazol-2-yl)phenyl]ethoxy}pyridin-3-yl)-4-methoxy-N-methylbenzenesulfonamide]
9.67 | 7.59 | CC(C)n1cc(-c2cnc(N)c(O[C@H](C)c3cc(F)ccc3-n3nccn3)c2)cn1 [Example 76, 3-{(1R)-1-[5-fluoro-2-(2H-1,2,3-triazol-2-yl)phenyl]ethoxy}-5-[1-(propan-2-yl)-1H-pyrazol-4-yl]pyridin-2-amine]
8.26 | 6.65 | C[C@@H](Oc1cc(-c2ccnc(F)c2F)cnc1N)c1cc(F)ccc1-n1nccn1 [Example 129, 2′,3′-difluoro-5-{(1R)-1-[5-fluoro-2-(2H-1,2,3-triazol-2-yl)phenyl]ethoxy}-3,4′-bipyridin-6-amine]
> 9.70 | 8.94 | C[C@@H](Oc1cc(-c2ccc(OC3CCNCC3)nc2)cnc1N)c1cc(F)ccc1-n1nccn1 [Example 122, 5-{(1R)-1-[5-fluoro-2-(2H-1,2,3-triazol-2-yl)phenyl]ethoxy}-6′-(piperidin-4-yloxy)-3,3′-bipyridin-6-amine]
> 9.70 | 7.12 | CCn1cc(-c2cnc(N)c(O[C@H](C)c3cc(F)ccc3-n3nccn3)c2)ccc1=O [Example 82, 6′-amino-1-ethyl-5′-{(1R)-1-[5-fluoro-2-(2H-1,2,3-triazol-2-yl)phenyl]ethoxy}-3,3′-bipyridin-6(1H)-one]
9.59 | 8.00 | C[C@@H](Oc1cc(-c2cccc(S(N)(=O)=O)c2)cnc1N)c1cc(F)ccc1-n1nccn1 [Example 113, 3-(6-amino-5-{(1R)-1-[5-fluoro-2-(2H-1,2,3-triazol-2-yl)phenyl]ethoxy}pyridin-3-yl)benzenesulfonamide]
8.96 | 7.28 | COc1ncccc1-c1cnc(N)c(OC(C)c2cc(F)ccc2N2CCCC2=O)n1 (stereo not shown) [Example 69, 1-[2-(1-{[3-amino-6-(2-methoxypyridin-3-yl)pyrazin-2-yl]oxy}ethyl)-4-fluorophenyl]pyrroli-din-2-one]
8.92 | 7.05 | COc1ccc(F)cc1C(C)Oc1nc(-c2cc(S(C)(=O)=O)cnc2OC)cnc1N (stereo not shown) [Example 102, 3-[1-(5-fluoro-2-methoxyphenyl)ethoxy]-5-[2-methoxy-5-(methylsulfonyl)pyridin-3-yl]pyrazin-2-amine]
> 9.70 | 8.60 | Cc1nn([C@H]2CCS(=O)(=O)C2)c(C)c1-c1cnc(N)c(O[C@H](C)c2cc(F)ccc2-n2nccn2)c1 [Example 127, 5-{1-[(3S)-1,1-dioxidotetrahydrothiophen-3-yl]-3,5-dimethyl-1H-pyrazol-4-yl}-3-{(1R)-1-[5-fluoro-2-(2H-1,2,3-triazol-2-yl)phenyl]ethoxy}pyridin-2-amine]
> 9.71 | 7.92 | Cc1n[nH]c(C)c1-c1cnc(N)c(O[C@H](C)c2cc(F)ccc2-n2nccn2)c1 [Example 126, 5-(3,5-Dimethyl-1H-pyrazol-4-yl)-3-{(1R)-1-[5-fluoro-2-(2H-1,2,3-triazol-2-yl)phenyl]ethoxy}pyridin-2-amine]
8.81 | – | Cc1n[nH]c(C)c1-c1cnc(N)c(O[C@H](C)c2cc(F)ccc2F)c1 [Example 48, 3-[(1R)-(2,5-difluorophenyl)-ethoxy]-5-(3,5-dimethyl-1H-pyrazol-4-yl)pyridin-2-amine]
